Experimental data published in PubChem BioAssay (NCI).
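48-hour exposure; five concentrations; linearly interpolated endpoints. TGI: concentration producing complete growth inhibition.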

Experiments:
Assay in all cases: growth of human tumour cells (NCI), 48 h
[1] = tested on: HCT-116 colon
[2] = tested on: A498 renal
[3] = tested on: HT29 colon
[4] = tested on: SN12C renal
[5] = tested on: DU-145 prostate
[6] = tested on: OVCAR-8 ovarian
[7] = tested on: SK-MEL-2 melanoma
[8] = tested on: RXF 393 renal
[9] = tested on: UACC-257 melanoma
[10] = tested on: MOLT-4 leukemia

SMILES	TGI [1] [µM]	TGI [2] [µM]	TGI [3] [µM]	TGI [4] [µM]	TGI [5] [µM]	TGI [6] [µM]	TGI [7] [µM]	TGI [8] [µM]	TGI [9] [µM]	TGI [10] [µM]
CC1(C)CC(=O)c2c(nc3c4c([nH]c(-c5ccc(Br)cc5)c24)CC(C)(C)C3)C1	> 100	86.7	> 100	> 100	> 100	> 100	> 100	65.3	> 100	> 100
CN(C)CCc1c2c(nc3ccccc13)C(=O)c1cccnc1C2=O	0.344	1.72	8.35	1.92	1.22	1.66	4.21	1.26	1.03	6.71
O=[N+]([O-])c1ccc(C(O)(C#CCN2CCCC2)c2ccccc2)cc1 (stereo not given)	> 100	76.6	34	> 100	> 100	> 100	75.5	> 100	58.7	64.4
CCN(CCN(CC)C(=O)Nc1ccccc1)C(=O)Nc1ccccc1	> 100	> 100	> 100	> 100	> 100	> 100	> 100	> 100	> 100	> 100
CN=C(Nc1cccc(C(F)(F)F)c1)SCc1ccc(N=C=S)cc1	29	34.6	31.2	26.9	31.2	40.7	25.6	29.3	27.3	36
CO/N=C1/c2sccc2[C@H](NC(=O)C(Cc2ccccc2)NC(=O)OC(C)(C)C)[C@@H]1O (stereo not given in full)	> 100	> 100	> 100	> 100	> 100	> 100	> 100	> 100	> 100	> 100
Nc1ncnc2c1ncn2[C@@H]1O[C@H](COC(c2ccccc2)(c2ccccc2)c2ccccc2)[C@@H](OC(=S)Oc2ccccc2)[C@@H]1F	13.8	35.2	22.7	15.1	30.2	11.9	19.4	12.3	28.6	5.98
O=C(O)c1ccccc1N=Nc1c(O)c(S(=O)(=O)O)cc2cc(S(=O)(=O)O)ccc12	> 100	> 100	> 100	> 100	> 100	> 100	> 100	> 100	> 100	> 100
CC(=O)OCC1OC(OCCCOP(=S)(OCCC#N)OCC2OC(n3ccc(N)nc3=O)C(OC(=O)c3ccccc3)C2OC(=O)c2ccccc2)C(OC(C)=O)C(OC(C)=O)C1OC(C)=O (stereo not given)	> 100	> 100	> 100	> 100	> 100	> 100	> 100	> 100	> 100	> 100
CN(CCCNC(=O)c1cc(-c2ccccc2)nc2ccccc12)CCCNC(=O)c1cc(-c2ccccc2)nc2ccccc12	3.33	10.1	3.46	17.4	9.49	5.65	3.67	16	3.34	5.33
CSc1c(C#N)c(N)n(-c2ccc(Cl)cc2)c(=O)c1C#N	> 100	> 100	> 100	> 100	> 100	> 100	> 100	> 100	> 100	> 100
CCOC(=O)C1CCCCN1C(=O)Cc1c[nH]c2ccccc12 (stereo not given)	> 100	> 100	> 100	> 100	> 100	> 100	> 100	> 100	> 100	> 100
CC(C)(C)NC(=O)CCC1C(C(=O)NC(C)(C)C)C2(Cl)C(Cl)=C(Cl)C1(Cl)C2(Cl)Cl (stereo not given)	> 100	> 100	> 100	> 100	> 100	> 100	> 100	> 100	> 100	> 100
CCc1ccc2c(c1)N(CC(C)CN(C)C)c1ccccc1S2 (stereo not given)	11	21.8	12.5	19.5	21.4	21.8	12	10.3	7.19	1.91
CCN(CC)C1Oc2cc3c(cc2C(c2cccc(OC)c2OC)C1C)OCO3 (stereo not given)	12.8	23.3	24.8	> 100	23.9	22.6	30.2	11.8	24.9	23.7
c1ccc(N=C2c3ccsc3C(=Nc3ccccc3)c3ccsc32)cc1	3.89	14.8	13.7	3.02	3.12	5.68	3.38	3.52	2.67	3.77

SMILES	TGI [1] [µM]	TGI [2] [µM]	TGI [3] [µM]	TGI [4] [µM]	TGI [5] [µM]	TGI [6] [µM]	TGI [7] [µM]	TGI [8] [µM]	TGI [9] [µM]	TGI [10] [µM]
CCOC(=O)Cn1nnc2ccc(Nc3nc4ccccc4nc3-c3ccccc3)cc21	> 100	> 100	> 100	> 100	31.8	> 100	> 100	> 100	> 100	> 100
O=C(O)c1cc(CCc2cc(O)ccc2O)ccc1O	> 100	> 100	> 100	> 100	> 100	> 100	> 100	> 100	> 100	> 100
CC(C)(C)OC(=O)NCCCCC(N)NC(=O)c1ccccc1 (stereo not given)	> 100	> 100	> 100	> 100	> 100	> 100	> 100	> 100	> 100	> 100
O=c1[nH]nc(-c2ccccc2)n1O	> 100	> 100	> 100	> 100	> 100	> 100	> 100	> 100	> 100	> 100
CCCCNc1nc(NC2OCC(OC(C)=O)C(OC(C)=O)C2OC(C)=O)c(N=O)c(=O)n1C (stereo not given)	> 10	> 10	> 10	> 10	> 10	> 10	> 10	> 10	> 10	> 10
C=CCC1(C)CCCN(Cc2ccccc2)C1=O (stereo not given)	> 10	3.91	> 10	> 10	> 10	> 10	> 10	> 10	> 10	> 10
CC(C)/C(Cl)=N/OC(=O)Nc1ccc(Cl)c(Cl)c1	4.65	33.5	13	3.42	32.5	32.9	34.1	26.7	27.9	6.2
N#Cc1nc(C#N)n(S(=O)(=O)c2ccccc2)c1NS(=O)(=O)c1ccccc1	> 100	> 100	> 100	> 100	> 100	> 100	> 31.6	> 100	> 100	> 100
OC(c1cccnc1Cl)c1nc2ccccc2c2ccnc(Cl)c12 (stereo not given)	> 100	17.5	> 100	45.8	> 100	> 100	> 100	35.4	> 100	> 100
CNNC(=NS(=O)(=O)c1cc(C#N)c(NNC)cc1S)NNC	> 10	> 10	> 10	> 10	> 10	> 10	> 10	> 10	> 10	> 10
Cc1cnc2c(c1C)C(=O)c1ccccc1C2=O	> 100	> 100	> 100	> 100	> 100	> 100	> 100	> 100	> 100	> 100
N#C/C(C(=S)NCc1ccccc1)=C(/N)N1CCCC1	> 100	> 100	> 100	> 100	> 100	> 100	> 100	> 100	> 100	> 100
CCCc1[nH]c2ccccc2c1-c1c(CCC)[nH]c2ccccc12	15.2	> 100	22.2	23.2	35	11.2	35.7	37.6	43.9	> 100
Clc1ccc2oc(CCc3ccccc3)nc2c1	> 100	60	> 100	> 100	> 100	> 100	> 100	99.3	> 100	> 100
COc1cccc(C(=O)C#Cc2cnc(OC)nc2OC)c1	7.67	22.1	2.67	2	12.4	3.88	3.95	1.39	6.42	0.7
COC(=O)C(Cc1c[nH]c2ccccc12)N=C1Nc2ccncc2S(=O)(=O)N1c1cccc(OC(C)C)c1 (stereo not given)	> 100	> 100	> 100	> 100	> 100	> 100	> 100	> 100	> 100	75.8
